From patent US11155820B2, “Target of VGSC β3 protein for prevention, treatment and diagnostic detection of cancers” (SHENYANG PHARMACEUTICAL UNIVERSITY, priority 2014, dated 2021)

Assays:
VGSC β3 subunit = assay: Western blotting of VGSC β3 subunit in HepG2 cells after AGAP; assay type: cell-based, human; details: HepG2, 40 μM, 48 h incubation, control proteins
Protocol: (§1) Analgesic antitumoral peptide (AGAP) at […] different concentrations (0, 5, 10, 15, 20, 25, 30, 35 and 40 μM) were incubated with hepatoma cell lines HepG2 (96 well plates, 10^4 cells/well, 24 h later, AGAP was administered at different concentrations as described above, at least 3 wells were repeated for each concentration) for 48 h, the amount of the VGSC β3 subunit expressed was then detected by Western blotting using the antibody in I.10. The cell proliferation level was measured using the MTT method.

[1] = system: hepatoma cell lines HepG2; assay: MTT assay of HepG2 cell proliferation after AGAP; assay type: cell-based; details: HepG2, 40 μM, 48 h incubation, control proteins
Protocol: The cell proliferation was measured by MTT assay:took the cells in good growth condition and in logarithmic growth phase, digested with conventional trypsin, and pipetted into a single cell suspension, after counting the blood cell with blood counting chamber, the concentration was adjusted to 10^5 cells/ml (HepG2 cells), then were inoculated into 96-well plates at 100 μl per well, while set the blank hole (only added 100 μl of culture medium, without cells); cultured in 5% CO2 incubator at 37° C. for 24 h, each well was added 0.5 mg/ml MTT, 100 μl, then continued to culture for 4 h, the supernatant was discarded and 150 μl of DMSO was added to each well. The mixture was incubated at low speed for 10 min on a micro shaker, and the absorbance of each well was measured at 490 nm using a microplate reader after the crystals were fully dissolved.
as §1

| Substance | effect on the expression of the VGSC β3 subunit (VGSC β3 subunit) | effect on cell proliferation [1] |
| --- | --- | --- |
| bovine serum albumin | no effect | nor did it affect cell proliferation |
| cytochrome C | no effect | nor did it affect cell proliferation |
